In assay [1] the test system is cofilin (pS3) in rat pancreatic acini. In words: cofilin activation (phospho-pS3 cofilin Western blot) in isolated rat pancreatic acini. It counts as cell-based. The protocol:
Pancreatic acini preparations were obtained by collagenase digestion as previously described ([Bissonnette et al., 1984]; [Sato et al., 1989]; [Ramos-Alvarez and Jensen, 2018]). After collagenase digestion, dispersed acini were preincubated with different inhibitors in standard incubation solution ([Ramos-Alvarez and Jensen, 2018]; [Ramos-Ãlvarez et al., 2020]) for 3 h at 37°C under conditions specific for PKD/PKC, Src, PI3K, MAPKs, SSH1, LIMK, cofilin, other phosphatases and PAK4 inhibitors, as described previously ([Ramos-Alvarez and Jensen, 2018]; [Ramos-Ãlvarez et al., 2020]). Isolated acini and CCK1-R/Panc-1 cells (M&M 2.2.1) were also preincubated with two SSH1 inhibitors, D3 (25 μM, 1 h) ([Li et al., 2015]) or SE (50 μM, 3 h for acini; 24 h for CCK1-R/Panc-1 cells) ([Lee et al., 2017]). After preincubation, 1 mL aliquots of dispersed acini were incubated at 37°C for 3–15 min with CCK-8 (0.3 nM or 100 nM), for 5–15 min with TPA (1 µM) or without stimulants, used as control. Cells were lysed in lysis buffer (50 mM Tris/HCl pH 7.5, 150 mM NaCl, 1% Triton X-100, 1% deoxycholate, 0.1% sodium azide, 1 mM EGTA, 0.4 mM EDTA, 0.2 mM sodium orthovanadate, 1 mM PMSF, and one protease inhibitor tablet per 10 mL). After sonication, lysates were centrifuged at 10,000×g for 15 min at 4°C and protein concentration was measured using the Bio-Rad protein assay reagent. Finally, cells were processed as below for Western blotting.
Both concentrations of CCK-8 were used because CCK-8 is reported to have different responses with physiological and supraphysiological concentrations contributing to physiological and pathophysiological processes such as pancreatitis ([Dufresne et al., 2006]).
Western blotting and immunoprecipitation were performed as described previously ([Ramos-Alvarez and Jensen, 2018]). Whole cell lysates were subjected to SDS-PAGE using 4%–20% Tris–Glycine gels. […] Finally, membranes were then washed again twice in blocking buffer for 4 min, twice in washing buffer for 4 min, incubated for 4 min with chemiluminescence detection reagents. The intensity of the protein bands was measured using GeneTools software from Syngene, which were assessed in the linear detection range.
All experiments were performed at least 3 times. Data are presented as mean ± SEM and were analyzed with the non-parametric Kruskal–Wallis analysis (data was not normally distributed) and the Dunn’s multiple comparison test using the GraphPad Prism 8.0 software. P values < 0.05 were considered significant.
(A) Isolated pancreatic acini were incubated in the absence or presence of CCK-8 (100 nM), carbachol (1 μM), bombesin (1 nM), secretin (1 nM) or VIP (1 nM) for 1 min and then lysed. (B) Isolated pancreatic acini were incubated in the absence or presence of CCK-8 and CCK-JMV (at the indicate concentrations) for 3 min and then lysed. Western blots were analyzed using anti-pS3 cofilin, which mediates the activation state of cofilin. Bands were visualized using chemiluminescence and quantified by densitometry.
Background: Immunoblotting shows a protein as a band on a membrane.

For assay [2], the system named is cofilin in human T lymphocytes. The conditions noted are these: stimulated by CD2 or CD28; ref Ambach et al., 2000; cited from earlier work. An excerpt:
(§1) Because our results differ from the general finding that the two major signaling cascades in other tissues mediating cofilin activity, which involve alterations in LIMK and/or SSH1 activity ([Wang et al., 2005]; [Spratley et al., 2011]; [Mizuno, 2013]; [Ohashi, 2015]; [Xu et al., 2021]), were not important in mediating CCK’s activation of cofilin in pancreatic acini, we explored the possible involvement of other phosphatases that have been reported to participate in cofilin activation in other tissues with other stimulants. The activation of the serine/threonine phosphatases type 1 (PP1) or ty ...

Another assay relates to JNK1-3. The conditions noted are these: reversible ATP-competitive; reference not given; cited from earlier work. An excerpt: (Figure 10) In various tissues with difference stimuli, cofilin dephosphorylation and activation, has been reported to be mediated by PI3K, ROCK and various MAPKs (p38, p44/42, JNK) ([Won et al., 2008]; [Duan et al., 2014]), therefore we assessed their possible role in CCK-8-stimulated cofilin activation. Previous studies have shown that, in pancreatic acini and/or other tissues, CCK-8 activates each of these signaling cascades ([Berna et al., 2009]; [Camello-Almaraz et al., 2009]; [Ramos-Alvarez and Jensen, 2018]; [Ramos-Ãlvarez et al., 2020]). In order to address the role of these signal cas ...

Another assay deals with PP2A / PP1. The conditions noted are these: low concentrations; ref Ishihara et al., 1989; Takai et al., 1992; Lutz et al., 1993; Schmidt et al., 1994; Walsh et al., 1997; cited from earlier work. An excerpt: (Figures 5, 6) In human T lymphocytes, neurons, the 293 T cell line (human embryonic kidney 293 cells) and HeLa cells, it is reported that activation of cofilin can occur due its dephosphorylation through the co-stimulation activation of accessory receptors (e.g.,.CD2, CD3 or CD28) by CD3xCD28 mAb, with Endothelin-1 (ET-1), and the Ca^2+ ionophore A23187, which is mediated by activation of serine protein phosphatases ([Ambach et al., 2000]; [Wang et al., 2005]; [Tam et al., 2019]). Therefore, to explores the possible role of the protein phosphatases PP1, PP2A, PP2B in CCK-8-induced activation ...

The test system of another assay is parotid acinar cells. Details: method as in Tamaki and Yamashina, 2002. The conditions noted are these: ref Tamaki and Yamashina, 2002; cited from earlier work.
A further assay relates to pancreas. Details: method as in Waschulewski et al., 1996. The conditions noted are these: ref Waschulewski et al., 1996; cited from earlier work.
A further assay deals with PP2A. The conditions noted are these: cited from earlier work.
Source text: as §1

The values that follow come from paper PMC10149936, “Cofilin activation in pancreatic acinar cells plays a pivotal convergent role for mediating CCK-stimulated enzyme secretion and growth” (Frontiers in Physiology, 2023).

Molecules are shown by their SMILES.

For orientation: IC50 means the midpoint of a concentration-inhibition curve.

`C=CC[C@@H]1/C=C(\C)C[C@H](C)C[C@H](OC)[C@H]2O[C@@](O)(C(=O)C(=O)N3CCCC[C@H]3C(=O)O[C@H](/C(C)=C/[C@@H]3CC[C@@H](O)[C@H](OC)C3)[C@H](C)[C@@H](O)CC1=O)[C@H](C)C[C@@H]2OC` [FK-506]: the “effect on CCK-8 or TPA's activation of cofilin” value in assay [1] (FK-506 10 µM 3 h, CCK-8 0.3 and 100 nM 3 min, TPA 1 µM 5 min) is given as “had no effect”. Besides, the “effect on dephosphorylation of cofilin in human T lymphocytes” value in assay [2] is on record as “did not affect the dephosphorylation of cofilin in human T lymphocytes”.

Consider `Oc1c2ccccc2c2c3c(cccc13)N=N2` [SP600125], for which, in assay [1] (Wortmannin 1 µM, LY294002 100 µM, SB202190 10 µM, U0126 10 µM, Y-27632 10 µM 1 h, SP600125 20 µM 3 h, CCK-8 0.3 and 100 nM 3 min), the “reversal of cofilin dephosphorylation by CCK-8” value is “completely reversed”. Also, the 50% inhibitory concentration (IC50) in the assay on JNK1-3 was 110 nM.

In the case of `C=C1[C@@H](O)[C@@H]2O[C@]3(CC[C@H](/C=C/[C@@H](C)[C@@H]4CC(C)=C[C@@]5(O[C@H](C[C@@](C)(O)C(=O)O)CC[C@H]5O)O4)O3)CC[C@H]2O[C@@H]1[C@@H](O)C[C@H](C)[C@H]1O[C@@]2(CCCCO2)CC[C@H]1C` [okadaic acid], the “greater inhibitory effect on PP2A over PP1” value in the assay with PP2A / PP1 is given as 50-250 fold. Moreover, the “decrease of basal level of cofilin phosphorylation” value in assay [1] (calyculin A 1 nM or okadaic acid 10 nM, 3 h, no stimulant) came out at 12%. For the same compound, the “inhibition of cofilin activation stimulated by CCK-8” value in assay [1] (calyculin A 1 nM or okadaic acid 10 nM, 3 h, CCK-8 0.3 and 100 nM 3 min) is reported as “completely inhibited”. Further, in the assay on parotid acinar cells, the “effect on amylase release in parotid acinar cells” value is recorded as “disrupted amylase release in parotid acinar cells”. In addition, the “effect on stimulated enzyme secretion in pancreas” value in the assay on pancreas is given as “completely blocked stimulated enzyme secretion in pancreas”. The “phosphatase selectivity in pancreatic acini” value in the assay on PP2A (nanomolar concentrations, pancreatic acini, ref Wagner et al., 1992) is reported as “only inhibit PP2A”. For the same compound, the IC50 in the assay with PP2A (pancreatic acinar cells, ref Lutz et al., 1993, read-out: IC50, CCK1R-stimulated phosphatase activity (PP2A) in cytosol of pancreatic acinar cells) was 0.2 nM.
